Measured values from patent publication US8362054B2, “Therapeutic substituted lactams” (Allergan, Inc., priority 2007, dated 2013).
pEC50, pKi: −log10 of the molar value.

Assays:
[1] = biological target: T1, EP2 (Homo sapiens, UniProt P43116); assay: EP2 flipr functional assay; type: cell-based
Description: (§1) U.S. patent application Ser. No. 11/553,143, filed on Oct. 26, 2006, incorporated by reference herein, describes the methods used to obtain the in vitro data in the table below.

[2] = biological target: T1, EP2; assay: EP2 cAMP assay; type: cell-based
Description: as §1

[3] = biological target: T1, EP2; assay: EP2 binding (Ki)
Description: as §1

[4] = biological target: T2, EP4 (Homo sapiens, UniProt P35408); assay: EP4 flipr functional assay; type: cell-based
T2 sequence (P35408 whole entry): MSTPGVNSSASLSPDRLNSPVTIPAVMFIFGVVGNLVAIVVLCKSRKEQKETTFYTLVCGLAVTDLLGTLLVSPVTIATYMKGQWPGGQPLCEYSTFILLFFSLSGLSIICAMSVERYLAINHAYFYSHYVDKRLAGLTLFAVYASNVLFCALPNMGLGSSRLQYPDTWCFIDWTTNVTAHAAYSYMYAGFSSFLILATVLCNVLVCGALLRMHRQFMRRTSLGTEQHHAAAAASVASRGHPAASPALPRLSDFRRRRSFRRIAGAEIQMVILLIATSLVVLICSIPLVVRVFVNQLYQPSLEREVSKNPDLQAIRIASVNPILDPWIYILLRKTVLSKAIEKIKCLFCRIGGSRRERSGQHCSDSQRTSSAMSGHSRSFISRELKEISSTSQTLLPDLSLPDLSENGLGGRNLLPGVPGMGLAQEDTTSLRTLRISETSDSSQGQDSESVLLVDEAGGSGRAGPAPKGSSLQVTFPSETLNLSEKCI
Description: as §1

[5] = biological target: T2, EP4; assay: EP4 binding (KI)
Description: as §1

[6] = biological target: T3, hEP3A (Homo sapiens, UniProt P43115); assay: Other receptors functional assay, hEP3A; type: cell-based
T3 sequence (P43115 1-390): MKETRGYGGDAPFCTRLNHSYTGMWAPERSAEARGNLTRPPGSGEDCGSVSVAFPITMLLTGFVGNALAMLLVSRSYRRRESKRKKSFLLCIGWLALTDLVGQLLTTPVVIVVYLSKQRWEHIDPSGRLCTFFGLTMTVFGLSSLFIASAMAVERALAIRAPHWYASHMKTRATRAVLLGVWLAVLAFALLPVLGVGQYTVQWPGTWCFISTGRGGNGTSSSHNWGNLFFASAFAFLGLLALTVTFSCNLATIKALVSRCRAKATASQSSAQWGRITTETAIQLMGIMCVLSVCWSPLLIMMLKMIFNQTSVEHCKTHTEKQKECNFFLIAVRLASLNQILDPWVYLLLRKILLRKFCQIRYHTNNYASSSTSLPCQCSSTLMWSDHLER
Description: as §1

T1 sequence (P43116 whole entry): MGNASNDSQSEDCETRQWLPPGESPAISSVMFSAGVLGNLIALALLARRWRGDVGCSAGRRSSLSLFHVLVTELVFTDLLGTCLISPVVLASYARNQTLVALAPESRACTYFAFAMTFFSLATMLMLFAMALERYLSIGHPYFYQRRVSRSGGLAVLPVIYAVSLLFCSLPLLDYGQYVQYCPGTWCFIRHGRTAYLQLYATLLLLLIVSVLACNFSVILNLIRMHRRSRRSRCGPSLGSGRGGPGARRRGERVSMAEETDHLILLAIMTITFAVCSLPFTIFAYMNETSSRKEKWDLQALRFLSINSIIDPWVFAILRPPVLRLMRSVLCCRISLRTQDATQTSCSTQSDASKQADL

**Q.** What does the source list for O=C(O)c1ccc(COC[C@H]2CCC(=O)N2Cc2cc(Cl)cc(Cl)c2)s1 [(R)-5-(((1-(3,5-dichlorobenzyl)-5-oxopyrrolidin-2-yl)methoxy)methyl)thiophene-2-carboxylic acid]?
**A.** pEC50 [1]: 5.07; pEC50 [2]: 7.09; pKi [3]: 5.59; pEC50 [4]: < 5.00; pKi [5]: 5.14; EC50 [6]: 6450 nM
